Here are results for 20 molecules from ChEMBL document CHEMBL4152199, “Discovery of 6-chloro-2-(propylthio)-8,9-dihydro-7H-purines containing a carboxamide moiety as potential selective anti-lung cancer agents” (Eur J Med Chem, 2018).

One may read the pIC50 as the negative decadic logarithm of the IC50, by convention in mol/L. Higher therefore signals a small IC50.

pIC50: −log10 of the molar value. The source made the active and inactive calls. The calls are words filed in the database; no cut-off is given here. Bounds are passed on as bounds.

The test system of one data set is TE-1. The data set can be described thus: Antiproliferative activity against human TE1 cells after 72 hrs by MTT assay. The following applies: TE-1, 72 h. The class given is functional, cell-based. On the technique in general: Formazan colour is commonly taken as a measure of viable cells.
The test system of data set [1] is A549. The data set can be described thus: Antiproliferative activity against human A549 cells after 72 hrs by MTT assay. The class given is functional, cell-based. The following applies: A549, 72 h.
The subject of a further data set is MGC-803. The data set can be described thus: Antiproliferative activity against human MGC803 cells after 72 hrs by MTT assay. The format is functional, cell-based. To be noted: MGC-803, 72 h.
A further data set deals with PC-3. The data set can be described thus: Antiproliferative activity against human PC3 cells after 72 hrs by MTT assay. The format is functional, cell-based. The following applies: PC-3, 72 h.
Another data set has as its system GES1. The data set can be described thus: Antiproliferative activity against human GES-1 cells after 72 hrs by MTT assay. The class given is cell-based. To be noted: GES1, 72 h.
For data set [2], the system named is A549. The data set can be described thus: Induction of apoptosis in human A549 cells assessed as induction of apoptotic bodies at 2 uM after 72 hrs by Hoechst 33258 staining based fluorescence microscopic method. The class given is functional, cell-based.
In data set [3] the test system is A549. The data set can be described thus: Antimigratory activity in human A549 cells after 72 hrs by inverted microscopic based wound healing assay. The class given is functional, cell-based.
Data set [4] deals with A549. The data set can be described thus: Antiinvasive activity in human A549 cells after 72 hrs by Hoechst 33258 staining based matrigel assay. The class given is functional, cell-based.
Data set [5] has as its system A549. The data set can be described thus: Anticlonogenic activity against human A549 cells after 10 days by crystal violet staining based assay. The format is functional, cell-based.
Data set [6] has as its system A549. The data set can be described thus: Antimigratory activity in human A549 cells after 72 hrs by Hoechst 33258 staining based transwell assay. The class given is functional, cell-based.
Data set [7] in a line: Selectivity index, ratio of IC50 for human GES-1 cells to IC50 for human A549 cells. The class given is toxicity. The following applies: GES-1 cells versus A549 cells, read-out: Ratio IC50.
The test system of data set [8] is A549. The data set can be described thus: Induction of apoptosis in human A549 cells after 72 hrs by Annexin-V-FITC/propidium iodide staining based flow cytometric analysis. The class given is functional, cell-based. On the technique in general: In flow cytometry, cells or beads pass a laser one at a time.
The test system of data set [9] is A549. The data set can be described thus: Downregulation of vimentin expression in human A549 cells up to 2 uM after 72 hrs by Western blot analysis. The class given is functional, cell-based. Background: Immunoblotting shows a protein as a band on a membrane.
In data set [10] the test system is A549. The data set can be described thus: Anticlonogenic activity against human A549 cells at 1 uM after 10 days by crystal violet staining based assay relative to control. The format is functional.
Data set [11] relates to A549. The data set can be described thus: Induction of apoptosis in human A549 cells assessed as reduction in Bcl-2 level up to 2 uM after 72 hrs by Western blot analysis. The class given is functional, cell-based.
In data set [12] the test system is A549. The data set can be described thus: Induction of apoptosis in human A549 cells assessed as chromatin shrinkage at 2 uM after 72 hrs by Hoechst 33258 staining based fluorescence microscopic method. The class given is functional, cell-based.
Data set [13] concerns A549. The data set can be described thus: Induction of apoptosis in human A549 cells assessed as cell rounding at 2 uM after 72 hrs by Hoechst 33258 staining based fluorescence microscopic method. The class given is functional.
Data set [14] concerns A549. The data set can be described thus: Induction of apoptosis in human A549 cells assessed as increase in Bax level up to 2 uM after 72 hrs by Western blot analysis. The class given is functional, cell-based.
Data set [15] concerns A549. The data set can be described thus: Up regulation of E-cadherin expression in human A549 cells up to 2 uM after 72 hrs by Western blot analysis. The format is functional, cell-based.
The test system of data set [16] is A549. The data set can be described thus: Downregulation of N-cadherin expression in human A549 cells up to 2 uM after 72 hrs by Western blot analysis. The class given is functional, cell-based.

As for `CCCSc1nc(Cl)c2c(n1)N(Cc1ccccc1)C(C(=O)NCCc1c[nH]c3ccccc13)N2` (configuration not stated), the pIC50 was 4.52 in the data set on TE-1, 4.31 in the data set with A549 [1], 4.57 in the data set with MGC-803 and less than 4.19 in the data set with PC-3.

Turning to `CCCSc1nc(Cl)c2c(n1)N(Cc1ccccc1)C(C(=O)NCCNC(=O)OC(C)(C)C)N2` (configuration not stated), the pIC50 was less than 4.19 in the data set with TE-1, 4.27 in the data set with A549 [1], less than 4.19 with MGC-803 and 4.53 in the data set with PC-3.

On to `CCCSc1nc(Cl)c2c(n1)N(Cc1ccccc1)C(C(=O)O)N2` (configuration not stated), for which the pIC50 is less than 4.19 in the data set on TE-1, 4.97 in the data set on A549 [1], less than 4.19 with MGC-803 and 4.31 in the data set with PC-3.

Take `CCCSc1nc(Cl)c2c(n1)N(Cc1ccccc1)C(C(=O)NCCc1ccccc1)N2` (configuration not stated): the negative-log IC50 (pIC50) in the data set on TE-1 was 4.51; in the data set on A549 [1] it was 4.43; in the data set on MGC-803, 4.33; in the data set on PC-3, 4.38.

Take `CCCSc1nc(Cl)c2c(n1)N(Cc1ccccc1)C(C(=O)NCCCc1ccccc1)N2` (configuration not stated): the negative logarithm of the IC50 (pIC50) was 4.64 in the data set with TE-1, 5.03 in the data set with A549 [1], 4.77 in the data set with MGC-803 and 4.90 in the data set on PC-3.

With `CCCSc1nc(Cl)c2c(n1)N(CCNC(=O)OC(C)(C)C)C(C(=O)N1CCN(C)CC1)N2` (configuration not stated), the pIC50 was 4.29 with TE-1, 4.91 in the data set on A549 [1], 4.23 in the data set with MGC-803 and less than 4.19 in the data set with PC-3.

Regarding `CCCSc1nc(Cl)c2c(n1)N(Cc1ccccc1)C(C(=O)N1CCOCC1)N2` (configuration not stated), the pIC50 was 4.36 with TE-1, less than 4.19 with A549 [1], 4.52 in the data set with MGC-803 and 4.27 in the data set with PC-3.

Turning to `O=c1[nH]cc(F)c(=O)[nH]1` [FLUOROURACIL], the pIC50 with TE-1 was 4.78; in the data set on GES1, 4.90; with A549 [1], 4.88; in the data set with MGC-803 it was 5.06; in the data set on PC-3 it was 4.91.

Regarding `CCCSc1nc(Cl)c2c(n1)N(CC1CCCCC1)C(C(=O)N1CCN(C)CC1)N2` (configuration not stated), the pIC50 in the data set with TE-1 was less than 4.19; in the data set on A549 [1], 4.88; with MGC-803, less than 4.19; in the data set with PC-3, 4.89.

With `CCCSc1nc(Cl)c2c(n1)N(Cc1ccccc1)C(C(=O)OCC)N2` (configuration not stated), the pIC50 was less than 4.19 in the data set with TE-1, 4.86 in the data set with A549 [1], 4.73 in the data set on MGC-803 and 4.20 with PC-3.

Consider `CCCSc1nc(Cl)c2c(n1)N(Cc1cccs1)C(C(=O)N1CCN(C)CC1)N2` (configuration not stated), for which the pIC50 with TE-1 is 4.40; with A549 [1], 5.19; in the data set with MGC-803, 4.21; with PC-3, 5.30.

On to `CCCSc1nc(Cl)c2c(n1)N(CCOC)C(C(=O)N1CCN(C)CC1)N2` (configuration not stated), for which the negative logarithm of the IC50 (pIC50) in the data set with TE-1 is less than 4.19; in the data set on A549 [1] it was 4.21; in the data set on MGC-803 it was less than 4.19; with PC-3, 4.20.

For the molecule `CCCSc1nc(Cl)c2c(n1)N(Cc1ccccc1)C(C(=O)N1CCSCC1)N2` (configuration not stated), the pIC50 with TE-1 is 4.32; with A549 [1], less than 4.19; with MGC-803 it was 4.51; in the data set with PC-3, 4.32.

Regarding `CCCSc1nc(Cl)c2c(n1)N(Cc1ccccc1)C(C(=O)NCCCN1CCOCC1)N2` (configuration not stated), the pIC50 in the data set on TE-1 was 4.29; in the data set with A549 [1], 4.37; in the data set on MGC-803 it was less than 4.19; in the data set on PC-3, 4.35.

`CCCSc1nc(Cl)c2c(n1)N(Cc1ccccc1)C(C(=O)N1CCN(C)CC1)N2` (configuration not stated): the outcome in the data set with A549 [2], in the data set on A549 [9], with A549 [11], in the data set with A549 [12], in the data set with A549 [13] and in the data set with A549 [14] was Active. Also, the result in the data set with A549 [15] and with A549 [16] was Active. The Activity entry in the data set on A549 [3] is “Dose-dependent effect”; with A549 [4] it was “Dose-dependent effect”; in the data set on A549 [5], “Dose-dependent effect”; with A549 [6] it was “Dose-dependent effect”; with A549 [8], “Dose-dependent effect”; in the data set on A549 [10], 57%. Further, the selectivity ratio in data set [7] came to 108. The pIC50 was 4.37 in the data set on TE-1; 3.52 with GES1; 5.55 in the data set with A549 [1]; less than 4.19 with MGC-803; 4.53 in the data set on PC-3.

As for `CCCSc1nc(Cl)c2c(n1)N(Cc1ccccc1)C(C(=O)N1CCN(C(=O)OC(C)(C)C)CC1)N2` (configuration not stated), the pIC50 in the data set with TE-1 is 4.51; in the data set on A549 [1] it was 4.54; with MGC-803, 4.49; with PC-3 it was 4.33.

As for `CCCSc1nc(Cl)c2c(n1)N(Cc1ccccc1)C(C(=O)Nc1ccccc1)N2` (configuration not stated), the pIC50 is less than 4.19 in the data set with TE-1, 4.30 in the data set with A549 [1], 4.23 in the data set on MGC-803 and less than 4.19 with PC-3.

As to `CCCSc1nc(Cl)c2c(n1)N(Cc1ccccc1)C(C(=O)NCC(C)C)N2` (configuration not stated), the pIC50 was 4.33 with TE-1, 4.32 in the data set with A549 [1], 4.23 in the data set on MGC-803 and less than 4.19 in the data set on PC-3.

For `CCCSc1nc(Cl)c2c(n1)N(Cc1ccco1)C(C(=O)N1CCN(C)CC1)N2` (configuration not stated), the pIC50 in the data set on TE-1 is 4.46; in the data set with A549 [1], 4.87; in the data set on MGC-803, 4.27; in the data set on PC-3, 4.95.

With `CCCSc1nc(Cl)c2c(n1)N(Cc1ccccc1)C(C(=O)N1CCN(Cc3ccccc3)CC1)N2` (configuration not stated), the pIC50 in the data set with TE-1 was 4.32; in the data set on A549 [1], 4.84; in the data set on MGC-803, 4.29; in the data set on PC-3, 4.24.
